Experimental data from patent US20060210584A1, “Method for preparing citrinin-free Monascus biomass and use of citrinin-free Monascus biomass” (priority 2005, published 2006).

How the values were obtained:
[1] = Scavenging of DPPH radicals; type: biochemical; settings: methanolic extract; absorbance 515 nm, 30 s
Experimental: (§1) A freeze-dried sample of Example 1 was weighed and made up to 100 mg/mL in distilled water. The solution was autoclaved at 121° C. for 15 min. The supernatant was harvested after centrifugation at 4° C. was stored at −20° C. A serial dilution was then made with the stock aqueous extract into a series of increasing concentrations of the extracts up to 100 mg/mL solution. For the assay of the scavenging of DPPH radicals, a methanolic extract (membrane-filtered; 0.45 μm membrane, Acrodisc 4CR, PTEE) (replacing the solvent water with methanol and procedure stated in the first sentence) was used instead.
1.8 mL of a methanolic solution of DPPH (6×10^−5M 2,2-diphenyl-1-picrylhydrazyl) was added to 0.2 mL of a methanolic Monascus extract of variable concentrations (prepared as described above). The absorbance of the reaction mixture was measured at 515 nm exactly 30s after the DPPH solution was added. Vitamin E and methanol were used as positive and negative controls, respectively.
The inhibition rate (%) was calculated using the following formula: Inhibition rate (%)=(A−A1)/A×100%
where A was the absorbance of the negative control, and A1 was that of the tested sample.

mouse = settings: cited from earlier work
[2] = test system: microsomal lipid peroxidation; assay: Inhibition of microsomal lipid peroxidation (MDA-TBA); type: biochemical; settings: rat liver microsomes, 10 μM FeSO4 and 0.1 mM ascorbic acid, 37° C. 60 min; aqueous extract
Experimental: as §1
Normal rats were sacrificed by cervical dislocation. The liver of the rats was rapidly homogenized in 0.25M of an ice-cold sucrose solution and the resultant solution was centrifuged at 12,000×g for 20 min at 4° C. The supernatant obtained was centrifuged at 15,000×g for 60 min at 4° C. […]
The microsomes (200-300 μg/mL) were incubated at 37° C. for 60 min with the extract sample of Monascus biomass at variable concentrations, 10 μM FeSO4 and 0.1 mM ascorbic acid in 1.0 mL of a phosphate buffered saline (PBS, 0.25M, pH7.4). […] After centrifugation of precipitated protein, the color reaction of MDA-TBA complex was detected at OD 532 nm. […]
where A was the absorbance (OD532) of the negative control, and A1 was that of the tested sample.

[3] = Scavenging of superoxide radicals (PMS-NADH/NBT); type: biochemical; settings: PMS-NADH system, NBT, OD 560 nm; aqueous extract
Experimental: as §1
Superoxide radicals were generated in a PMS-NADH [phenazin methosulfate (PMS)-β-nicotinamide adenine dinucleotide (reduced from, NADH)] system by oxidation of NADH and assayed by the reduction of nitroblue tetrazolium (NBT). The superoxide radicals were generated in 3 mL of Tris-HCl buffer (16 mM, pH8.0), which contained 78 μM NADH, 50 μM NBT, 10 μM PMS and Monascus extracts at different concentrations to be tested. The color reaction between superoxide radicals and NBT was detected at OD 560 nm. L-ascorbic acid was used as a positive control. The inhibition rate (%) was calculated using the following formula: Inhibition rate (%)=(A−A1)/A×100%
where A was the absorbance of a negative control (distilled water), and A1 was the absorbance of the tested sample.

[4] = Reducing power (potassium ferricyanide); type: biochemical; settings: absorbance 700 nm
Experimental: as §1
2.5 mL of 1% potassium ferricyanide [K3Fe(CN)6] was added to 1.0 mL of an aqueous Monascus extract of variable concentrations (prepared as stated above). The resultant mixture was incubated at 50° C. for 20 min. 2.5 mL of trichloracetic acid (TCA, 10%) were added to the mixture. 2.5 mL of the resultant solution were mixed with 2.5 mL of distilled water and 0.5 mL of FeCl3 solution (0.1%). The absorbance was measured at 700 nm. Increased absorbance of the reaction mixture indicated an increase of reducing power. Vitamin C was used as a positive control in this experiment.

Compound: Vitamin E
- effective concentration to give 50% inhibition, scavenging of DPPH radicals [1]: 1 mg/mL

Compound: CC1=C2C(=CO[C@H](C)[C@H]2C)C(O)=C(C(=O)O)C1=O [citrinin]
- LD50 (lethal dose causing decrease of 50% population) (mouse): 35 mg/kg

Compound: O=C1O[C@H]([C@@H](O)CO)C(O)=C1O [Vitamin C, L-ascorbic acid]
- effective concentration giving 50% inhibition of microsomal lipid peroxidation [2]: 0.1 mg/mL
- effective concentration giving 50% inhibition, scavenging of superoxide radicals [3]: 1.5 mg/mL
- reducing power, concentration range of action [4]: less than 1 mg/mL
